Experimental data as given in ChEMBL document CHEMBL1201862, “PubChem BioAssay data set” (2004).
Active and inactive are the calls of the source.

What was measured:
[1] = molecular target: T1, Low molecular weight phosphotyrosine protein phosphatase (Homo sapiens, UniProt P24666); experiment: LMPTP phosphatase inhibitors, dose response, biochemical, OMFP substrate, fluorescence intensity, set 2 (AID 743307); type: functional
T1 sequence (P24666 whole entry): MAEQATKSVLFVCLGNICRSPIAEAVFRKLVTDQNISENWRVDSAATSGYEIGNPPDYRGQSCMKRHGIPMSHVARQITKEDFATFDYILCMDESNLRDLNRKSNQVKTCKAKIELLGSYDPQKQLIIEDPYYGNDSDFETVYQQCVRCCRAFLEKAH

[2] = molecular target: T1, Low molecular weight phosphotyrosine protein phosphatase; experiment: LMPTP phosphatase inhibitors, colorimetric pNPP readout, dose response, orthogonal assay, biochemical, absorbance, pNPP substrate, LMPTP-A isoform, set 2 (AID 743308); type: functional
[3] = system: Danio rerio; experiment: In Vivo Angiogenesis Dose-Response Confirmation. [Related pubchem assays: 732 (Assay preceding this confirmatory assay.)]; type: functional, organism-based
[4] = molecular target: Cytochrome P450 2C19 (Homo sapiens, UniProt P33261); experiment: Cytochrome panel assay with activity outcomes. Panel member name: p450-cyp2c19 Compounds with AC50 equal or less than 10 uM are considered active; type: functional; conditions: read-out: AC50
Cytochrome P450 2C19, sequence (P33261 whole entry): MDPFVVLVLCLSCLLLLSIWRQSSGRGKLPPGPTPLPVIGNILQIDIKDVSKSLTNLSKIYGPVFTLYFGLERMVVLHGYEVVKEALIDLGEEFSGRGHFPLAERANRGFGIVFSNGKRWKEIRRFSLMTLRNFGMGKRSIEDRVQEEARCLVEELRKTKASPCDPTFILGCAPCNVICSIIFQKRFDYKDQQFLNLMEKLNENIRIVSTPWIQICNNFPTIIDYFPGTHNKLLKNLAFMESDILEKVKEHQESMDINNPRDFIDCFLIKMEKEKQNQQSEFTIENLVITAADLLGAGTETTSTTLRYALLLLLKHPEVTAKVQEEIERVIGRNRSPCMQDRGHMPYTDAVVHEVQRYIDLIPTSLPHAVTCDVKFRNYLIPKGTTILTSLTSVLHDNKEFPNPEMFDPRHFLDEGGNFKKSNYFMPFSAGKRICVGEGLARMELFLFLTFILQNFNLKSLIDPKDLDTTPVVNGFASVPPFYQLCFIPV

[5] = molecular target: T2, Cytochrome P450 2C9 (Homo sapiens, UniProt P11712); conditions: Potency
T2 sequence (P11712 whole entry): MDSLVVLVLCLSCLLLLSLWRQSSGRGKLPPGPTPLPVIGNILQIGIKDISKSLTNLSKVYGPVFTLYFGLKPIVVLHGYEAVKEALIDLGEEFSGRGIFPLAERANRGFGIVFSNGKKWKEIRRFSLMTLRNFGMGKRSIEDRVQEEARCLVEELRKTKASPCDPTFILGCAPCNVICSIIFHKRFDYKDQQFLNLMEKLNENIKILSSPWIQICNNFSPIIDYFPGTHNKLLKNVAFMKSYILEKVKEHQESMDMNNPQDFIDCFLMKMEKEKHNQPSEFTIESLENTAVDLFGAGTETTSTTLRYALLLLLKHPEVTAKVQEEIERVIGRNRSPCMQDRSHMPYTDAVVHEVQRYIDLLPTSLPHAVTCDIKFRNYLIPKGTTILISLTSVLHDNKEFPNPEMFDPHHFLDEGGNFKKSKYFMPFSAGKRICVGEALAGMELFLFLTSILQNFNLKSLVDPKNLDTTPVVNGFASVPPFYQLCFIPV

[6] = molecular target: T2, Cytochrome P450 2C9
[7] = molecular target: 14-3-3 protein gamma (Homo sapiens, UniProt P61981); experiment: modulators of 14-3-3 gamma client binding – dose response (AID 711); type: functional
14-3-3 protein gamma, sequence (P61981 whole entry): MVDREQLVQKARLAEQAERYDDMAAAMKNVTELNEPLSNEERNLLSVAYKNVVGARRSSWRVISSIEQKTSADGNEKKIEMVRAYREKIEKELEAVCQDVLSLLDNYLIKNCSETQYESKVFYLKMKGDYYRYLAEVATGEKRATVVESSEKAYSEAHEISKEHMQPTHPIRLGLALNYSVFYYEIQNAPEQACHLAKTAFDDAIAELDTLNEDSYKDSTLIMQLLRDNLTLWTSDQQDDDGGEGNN

[8] = molecular target: T3, Replicative DNA helicase DnaB (Mycobacterium tuberculosis, UniProt P9WMR3); experiment: DnaB intein splicing inhibitors, dose response, biochemical, cell-free fluorescence (AID 449749); type: functional
T3 sequence (P9WMR3 whole entry): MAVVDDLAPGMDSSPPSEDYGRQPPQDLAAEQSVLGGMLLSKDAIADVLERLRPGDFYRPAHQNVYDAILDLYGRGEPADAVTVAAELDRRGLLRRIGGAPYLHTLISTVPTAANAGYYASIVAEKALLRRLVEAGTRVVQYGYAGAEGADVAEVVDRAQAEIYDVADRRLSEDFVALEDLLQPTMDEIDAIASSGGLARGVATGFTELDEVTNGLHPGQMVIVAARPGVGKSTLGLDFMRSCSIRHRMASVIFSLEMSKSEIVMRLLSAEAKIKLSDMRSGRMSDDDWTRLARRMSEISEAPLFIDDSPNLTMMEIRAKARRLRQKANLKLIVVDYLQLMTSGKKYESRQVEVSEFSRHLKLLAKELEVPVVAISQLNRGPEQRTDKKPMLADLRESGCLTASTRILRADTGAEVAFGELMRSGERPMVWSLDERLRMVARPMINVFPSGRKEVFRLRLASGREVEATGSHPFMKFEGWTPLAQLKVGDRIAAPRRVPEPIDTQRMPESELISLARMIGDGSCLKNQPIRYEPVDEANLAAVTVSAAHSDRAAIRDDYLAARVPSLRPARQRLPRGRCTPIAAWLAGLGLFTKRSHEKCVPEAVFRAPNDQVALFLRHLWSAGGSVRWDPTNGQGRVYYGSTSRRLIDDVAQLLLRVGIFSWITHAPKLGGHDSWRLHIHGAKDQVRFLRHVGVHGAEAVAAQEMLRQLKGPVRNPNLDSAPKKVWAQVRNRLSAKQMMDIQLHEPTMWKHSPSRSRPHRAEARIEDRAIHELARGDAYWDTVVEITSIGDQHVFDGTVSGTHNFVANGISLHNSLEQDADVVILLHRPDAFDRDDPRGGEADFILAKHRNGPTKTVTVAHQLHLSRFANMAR

[9] = molecular target: T4, Protein RecA (Mycobacterium tuberculosis, UniProt P9WHJ3); experiment: Fluorescence Cell-Free Homogeneous Dose Retest to Identify Inhibitors of RecA-Intein Splicing Activity. [Related pubchem assays (depositor defined):AID2097, AID2223, AID489010, AID492950]; type: functional
T4 sequence (P9WHJ3 whole entry): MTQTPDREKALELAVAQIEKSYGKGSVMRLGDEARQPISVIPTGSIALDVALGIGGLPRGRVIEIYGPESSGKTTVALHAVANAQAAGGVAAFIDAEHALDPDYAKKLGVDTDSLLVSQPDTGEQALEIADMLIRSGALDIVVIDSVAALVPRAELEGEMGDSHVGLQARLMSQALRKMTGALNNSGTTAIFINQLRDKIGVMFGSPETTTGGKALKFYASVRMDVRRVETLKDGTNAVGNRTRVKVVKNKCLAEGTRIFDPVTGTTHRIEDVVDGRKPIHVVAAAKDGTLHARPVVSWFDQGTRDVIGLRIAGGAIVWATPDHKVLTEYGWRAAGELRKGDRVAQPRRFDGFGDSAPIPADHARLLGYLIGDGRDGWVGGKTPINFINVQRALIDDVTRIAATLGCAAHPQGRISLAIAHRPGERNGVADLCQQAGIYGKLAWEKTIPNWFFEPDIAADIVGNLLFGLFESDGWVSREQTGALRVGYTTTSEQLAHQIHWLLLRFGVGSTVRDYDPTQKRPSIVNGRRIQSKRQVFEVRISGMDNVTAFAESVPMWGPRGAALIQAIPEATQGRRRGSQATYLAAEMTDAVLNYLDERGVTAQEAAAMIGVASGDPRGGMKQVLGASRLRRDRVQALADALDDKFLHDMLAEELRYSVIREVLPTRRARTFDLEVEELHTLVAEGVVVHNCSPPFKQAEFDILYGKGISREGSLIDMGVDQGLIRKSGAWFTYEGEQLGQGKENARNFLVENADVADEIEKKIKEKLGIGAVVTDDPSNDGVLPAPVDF

[10] = molecular target: Voltage-gated inwardly rectifying potassium channel KCNH2 (Homo sapiens, UniProt Q12809); experiment: hERG protection from proarrhythmic block, potency, dose response, cell-based, thallium flux (AID 2121); type: ADME
Voltage-gated inwardly rectifying potassium channel KCNH2, sequence (Q12809 whole entry): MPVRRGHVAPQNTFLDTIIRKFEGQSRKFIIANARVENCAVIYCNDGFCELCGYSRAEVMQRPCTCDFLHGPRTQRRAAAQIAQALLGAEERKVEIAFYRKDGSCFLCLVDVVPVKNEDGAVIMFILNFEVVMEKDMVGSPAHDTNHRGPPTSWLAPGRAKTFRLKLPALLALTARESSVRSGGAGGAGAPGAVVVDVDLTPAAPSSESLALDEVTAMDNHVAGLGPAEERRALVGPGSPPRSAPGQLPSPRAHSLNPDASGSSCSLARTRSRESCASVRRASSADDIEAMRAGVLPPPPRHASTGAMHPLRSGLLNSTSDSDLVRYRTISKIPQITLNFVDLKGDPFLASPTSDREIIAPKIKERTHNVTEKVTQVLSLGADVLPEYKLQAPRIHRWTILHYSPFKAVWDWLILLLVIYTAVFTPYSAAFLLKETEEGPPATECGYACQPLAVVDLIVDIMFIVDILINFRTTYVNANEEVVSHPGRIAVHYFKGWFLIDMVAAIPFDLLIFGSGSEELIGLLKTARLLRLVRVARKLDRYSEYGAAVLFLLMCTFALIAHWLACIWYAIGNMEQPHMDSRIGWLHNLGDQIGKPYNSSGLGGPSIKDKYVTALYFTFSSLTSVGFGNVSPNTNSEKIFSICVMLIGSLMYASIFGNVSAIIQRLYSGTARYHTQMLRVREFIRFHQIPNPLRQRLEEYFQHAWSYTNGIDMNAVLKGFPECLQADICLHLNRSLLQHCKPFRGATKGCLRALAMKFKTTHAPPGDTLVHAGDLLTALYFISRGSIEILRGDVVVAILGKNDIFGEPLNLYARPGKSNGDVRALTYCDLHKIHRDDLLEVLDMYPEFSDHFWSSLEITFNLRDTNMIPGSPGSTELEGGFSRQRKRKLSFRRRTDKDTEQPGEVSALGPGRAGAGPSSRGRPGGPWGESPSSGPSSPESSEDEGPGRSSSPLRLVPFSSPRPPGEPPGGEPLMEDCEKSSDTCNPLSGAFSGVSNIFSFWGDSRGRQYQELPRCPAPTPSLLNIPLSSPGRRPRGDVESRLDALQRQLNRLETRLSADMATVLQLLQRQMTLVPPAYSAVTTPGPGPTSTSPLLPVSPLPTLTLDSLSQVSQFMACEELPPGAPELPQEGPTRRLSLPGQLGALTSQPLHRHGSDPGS

[11] = system: Vero; experiment: cytotoxicity of synthesized analogs in Vero cells, SAR follow-up, cytotoxicity control for West Nile virus antiviral project, cell-based, set II (AID 2402); type: functional; conditions: Chlorocebus sabaeus

Structure (SMILES): c1ccc(-c2nc(NC3CCCCC3)c3ccccc3n2)cc1
- IC50 [1]: 19.1 µM (active)
- IC50 [2]: > 80 µM (inactive)

Structure (SMILES): O=Nc1c(-c2c(O)[nH]c3ccccc23)[nH]c2ccccc12 [INDIRUBIN-3-MONOXIME]
- IC50 [3]: 310 nM (active)
- AC50 [4]: 39.8 µM (inconclusive)
- AC50 [5]: 12.6 µM (inconclusive)
- AC50 [6]: 39.8 µM (inconclusive)

Structure (SMILES): NC(=O)c1c(-c2cccs2)csc1N
- IC50 [7]: > 50 µM (not active)
- AC50 [8]: > 380 µM (inactive)
- EC50 [9]: 1.02 µM (active)

Structure (SMILES): C/C(Nc1cccc(F)c1)=C(/C#N)C(N)=O
- EC50 [10]: 880 nM (active)

Structure (SMILES): OC1c2c(F)cccc2N=C2CCCCCN21 (stereo unspecified)
- CC50 [11]: > 200 µM (active)
